One test has as its system pJNK in HCT-116 cells. The experiment in a line: Phospho-JNK (Thr183/Tyr185) Meso Scale ELISA assay, TNFα-stimulated HCT-116 cells. Type of test: cell-based. Particulars: Homo sapiens, read-out: mean HCT-116 pJNK ELISA IC50 (Col. B). As for the experimental part:
Detailed below are ELISA assays for pJNK and p38, and a TAK1 biochemical assay. […] In Table 1, Col.
Phospho-JNK (Thr183/Tyr185) Meso Scale ELISA Assay
• 1. Plate HCT-116 cells at 25,000 per well in 100 uL in 96 well clear dishes in normal growth medium. Day 2: • 1. Aspirate medium and replace with 90 μl reduced serum growth medium (1% FCS), incubate for 2 hours at 37° C. • 2. Make drugs at 10× in reduced serum medium and add 10 uL per well. • 3. Incubate at 37° C. for 4 hrs. • 4. Bring capture plates to room temperature. • 5. Block with 150 μl Blocking Solution (provided with kit) (600 mg Blocker A into 20 mL 1× Wash Buffer per plate) at room temperature with shaking. • 6. Wash plates 4× with 200 μl 1× wash buffer (10× provided with kit) before transferring lysates. • 7. Dilute TNFα to […] in reduced serum medium (this makes a 10× working stock). • 8. Add 10 μl TNFα to all wells except negative control wells, final concentration is 10 ng/mL. • 9. Incubate at 37° C. for 10 minutes. • 10. Remove medium by flicking into sink • 11. Wash cells with 100 uL ice cold PBS. • 12. Remove PBS by flicking into sink and patting on paper towels. • 13. Lyse cells in 50 μl ice cold 1× Complete Lysis Buffer plus Phosphatase and Protease inhibitors (all provided with kit) (10 mL Tris Lysis Buffer+200 μl Protease inhibitor solution+100 μl Phosphatase inhibitor I+100 μl Phosphatase inhibitor II). • 14. Incubate with shaking at 4° C. for 30 minutes. • 15. Transfer 45 μl to capture plate, cover with adhesive cover, and incubate at 4° C. over night with shaking. • Day 3: • 1. Wash plates 4× with 200 μl 1× wash buffer (10× provided with kit). • 2. […] Incubate at room temperature with shaking for 1 hour. • 4. Wash 4× with 200 μl 1× Wash Buffer. • 5. […] Read on Sector Imager. Phospho-p38 Meso Scale ELISA Assay Day 1: • 1. Plate HCT-116 cells at 25,000 per well in 100 uL in 96 well clear dishes in normal growth medium. zday 2: • 1. Aspirate medium and replace with 90 μl reduced serum growth medium (1% FCS), incubate for 2 hours at 37° C. • 2. Make drugs at 10× in reduced serum medium and add 10 uL per well. • 3. Incubate at 37° C. for 4 hrs. • 4. Bring capture plates to room temperature. • 5. Block with 150 μl Blocking Solution (provided with kit) (600 mg Blocker A into 20 mL 1× Wash Buffer per plate) at room temperature with shaking. • 6. Wash plates 4× with 200 μl 1× wash buffer (10× provided with kit) before transferring lysates. • 7. Dilute TNFα to […] in reduced serum medium (this makes a 10× working stock). • 8. Add 10 μl TNFα to all wells except negative control wells, final concentration is 10 ng/mL. • 9. Incubate at 37° C. for 10 minutes. • 10. Remove medium by flicking into sink • 11. Wash cells with 100 uL ice cold PBS. • 12. Remove PBS by flicking into sink and patting on paper towels. • 13. Lyse cells in 50 μl ice cold 1× Complete Lysis Buffer plus phosphatase and protease inhibitors (all provided with kit) (10 mL Tris Lysis Buffer+200 μl Protease inhibitor solution+100 μl Phosphatase inhibitor I+100 μl Phosphatase inhibitor II). • 14. Incubate with shaking at 4° C. for 30 minutes. • 15. Dilute lysates before transferring to capture plate with 100 μl Complete p38 Lysate • Dilution Buffer (provided with kit) (10 mL of Diluent 20±200 μl Protease inhibitor solution+100 μl Phosphatase inhibitor I+100 μl Phosphatase inhibitor II). • 16. Transfer 50 μl of diluted lysates to capture plate, cover with adhesive cover, and incubate at 4° C. over night with shaking. Day 3: • 1. Wash plates 4× with 200 μl 1× wash buffer (10× provided with kit). • 2. […] Incubate at room temperature with shaking for 1 hour. • 4. Wash 4× with 200 μl 1× Wash Buffer. • 5. […] Read on Sector Imager. TAK1 Biochemical Assay
Background: ELISA stands for enzyme-linked immunosorbent assay.

A further test addresses T1, TAK1-TAB1 fusion protein (Homo sapiens, UniProt O43318).
T1 construct: purchased Carna
T1 sequence (O43318 with tags, fused parts or gaps limits assumed): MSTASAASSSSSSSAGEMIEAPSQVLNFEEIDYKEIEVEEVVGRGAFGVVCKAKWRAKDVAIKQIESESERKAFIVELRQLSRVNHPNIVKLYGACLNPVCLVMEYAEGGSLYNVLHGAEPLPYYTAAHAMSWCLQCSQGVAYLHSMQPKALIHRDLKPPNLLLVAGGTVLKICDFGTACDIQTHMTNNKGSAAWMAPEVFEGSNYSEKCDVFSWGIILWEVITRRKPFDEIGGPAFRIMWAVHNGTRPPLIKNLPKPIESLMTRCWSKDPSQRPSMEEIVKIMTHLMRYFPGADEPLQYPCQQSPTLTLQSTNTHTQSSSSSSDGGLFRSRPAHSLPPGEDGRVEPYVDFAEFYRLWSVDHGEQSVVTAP
Briefly: TAK1 biochemical assay (AlphaScreen, GST-MAP2K7 substrate). Conditions: TAK1-TAB1 fusion protein, GST-MAP2K7 substrate; read-out: mean TAK1 IC50 (Col. A).

Where a name gives a salt, the structure may show the parent alone.

For orientation: IC50 means the concentration needed to halve the response being measured. Regarding `CC(=O)N1CCC(n2cc(-c3cnc(N)c4oc(-c5c(C#N)sc6cnccc56)cc34)cn2)CC1` [Example 264, 3-{4-[1-(1-acetylpiperidin-4-yl)-1H-pyrazol-4-yl]-7-aminofuro[2,3-c]pyridin-2-yl}thieno[2,3-c]pyridine-2-carbonitrile Trifluoroacetate], the IC50 with pJNK in HCT-116 cells is below 100 nM; at TAK1-TAB1 fusion protein it was 100 to 1000 nM.

On to `Nc1ncc(-c2cnn([C@H]3CC[C@H](O)C3)c2)c2cc(-c3csc4cnccc34)oc12` [Example 307, (1S,3S)-3-[4-(7-amino-2-thieno[2,3-c]pyridin-3-yl-furo[2,3-c]pyridin-4-yl)-pyrazol-1-yl]-cyclopentanol], for which the values for the IC50 in the test on pJNK in HCT-116 cells and at TAK1-TAB1 fusion protein were 100 to 1000 nM and below 100 nM, respectively.

With `CC(=O)N1CCC(n2cc(-c3cnc(N)c4oc(-c5csc6cnc(O)cc56)cc34)cn2)CC1` [Example 251, 1-(4-{4-[7-amino-2-(5-hydroxythieno[2,3-c]pyridin-3-yl)furo[2,3-c]pyridin-4-yl]-1H-pyrazol-1-yl}piperidin-1-yl)ethanone bis(trifluoroacetate)], the figures for the IC50 in the test on pJNK in HCT-116 cells and on TAK1-TAB1 fusion protein were 1000 to 10000 nM and 100 to 1000 nM, respectively.

As for `Nc1ncc(-c2cnn([C@H]3CC[C@H](O)CC3)c2)c2cc(-c3cccc4cnncc34)oc12` [Example 366, trans-4-{4-[7-amino-2-(phthalazin-5-yl)furo[2,3-c]pyridin-4-yl]-1H-pyrazol-1-yl}cyclohexanol], the IC50 with pJNK in HCT-116 cells and on TAK1-TAB1 fusion protein was below 100 nM throughout.

For `Nc1ncc(-c2cnn([C@@H]3C[C@H]4CC[C@@H](C3)N4C=O)c2)c2cc(-c3csc4cnccc34)oc12` [Example 324, (3-exo)-3-{4-[7-amino-2-(thieno[2,3-c]pyridin-3-yl)furo[2,3-c]pyridin-4-yl]-1H-pyrazol-1-yl}-8-azabicyclo[3.2.1]octane-8-carbaldehyde], the IC50 in the test with pJNK in HCT-116 cells and at TAK1-TAB1 fusion protein was below 100 nM each time.

For `N#Cc1ccc2cnsc2c1-c1cc2c(-c3cnn([C@H]4CC[C@H](O)CC4)c3)cnc(N)c2o1` [Example 372, 7-{7-amino-4-[1-(trans-4-hydroxycyclohexyl)-1H-pyrazol-4-yl]furo[2,3-c]pyridin-2-yl}-1,2-benzothiazole-6-carbonitrile.diformate], the IC50 in the test with pJNK in HCT-116 cells is 100 to 1000 nM; at TAK1-TAB1 fusion protein, 1000 to 10000 nM.

Take `Nc1ncc(-c2cnn([C@H]3CC[C@H](O)CC3)c2)c2cc(-c3cccc4sncc34)oc12` [Example 242, trans-4-{4-[7-amino-2-(1,2-benzothiazol-4-yl)furo[2,3-c]pyridin-4-yl]-1H-pyrazol-1-yl}cyclohexanol Diformate Salt]: the IC50 in the test with pJNK in HCT-116 cells and at TAK1-TAB1 fusion protein was below 100 nM each time.

As for `Nc1ncc(-c2cnn(C3CCN(C(=O)CCN4CCCCC4)CC3)c2)c2cc(-c3csc4cnccc34)oc12` [Example 332, 1-{4-[4-(7-amino-2-thieno[2,3-c]pyridin-3-yl-furo[2,3-c]pyridin-4-yl)-pyrazol-1-yl]-piperidin-1-yl}-3-piperidin-1-yl-propan-1-one], the IC50 was 100 to 1000 nM with pJNK in HCT-116 cells and below 100 nM at TAK1-TAB1 fusion protein.

On to `Nc1ncc(-c2cnn([C@@H]3CC[C@@H](O)C3)c2)c2cc(-c3csc4cnccc34)oc12` [Example 308, (1R,3R)-3-[4-(7-amino-2-thieno[2,3-c]pyridin-3-yl-furo[2,3-c]pyridin-4-yl)-pyrazol-1-yl]-cyclopentanol], for which the figures for the IC50 in the test on pJNK in HCT-116 cells and at TAK1-TAB1 fusion protein were 100 to 1000 nM and below 100 nM, respectively.

Take `CN1[C@@H]2CC[C@H]1C[C@H](n1cc(-c3cnc(N)c4oc(-c5csc6cnccc56)cc34)cn1)C2` [Example 328, 4-{1-[(3-exo)-8-methyl-8-azabicyclo[3.2.1]oct-3-yl]-1H-pyrazol-4-yl}-2-(thieno[2,3-c]pyridin-3-yl)furo[2,3-c]pyridin-7-amine]: the IC50 in the test on pJNK in HCT-116 cells was 100 to 1000 nM; on TAK1-TAB1 fusion protein, below 100 nM.

Take `N#Cc1cc(-c2cc3c(-c4cnn([C@H]5CC[C@H](O)CC5)c4)cnc(N)c3o2)c2snnc2c1` [Example 370, 7-{7-amino-4-[1-(trans-4-hydroxycyclohexyl)-1H-pyrazol-4-yl]furo[2,3-c]pyridin-2-yl}-1,2,3-benzothiadiazole-5-carbonitrile]: the IC50 in the test on pJNK in HCT-116 cells was below 100 nM; on TAK1-TAB1 fusion protein it was 100 to 1000 nM.

On to `CC(=O)N1[C@@H]2CC[C@H]1C[C@H](n1cc(-c3cnc(N)c4oc(-c5csc6cnccc56)cc34)cn1)C2` [Example 325, 1-[(3-exo)-3-{4-[7-amino-2-(thieno[2,3-c]pyridin-3-yl)furo[2,3-c]pyridin-4-yl]-1H-pyrazol-1-yl}-8-azabicyclo[3.2.1]oct-8-yl]ethanone], for which the IC50 in the test with pJNK in HCT-116 cells and on TAK1-TAB1 fusion protein was below 100 nM in each case.

`CC(=O)N1CCC(n2cc(-c3cnc(N)c4oc(-c5cc(F)cc6cnsc56)cc34)cn2)CC1` [Example 237, 1-(4-{4-[7-amino-2-(5-fluoro-1,2-benzothiazol-7-yl)furo[2,3-c]pyridin-4-yl]-1H-pyrazol-1-yl}piperidin-1-yl)ethanone diformate salt]: the 50% inhibitory concentration (IC50) with pJNK in HCT-116 cells and on TAK1-TAB1 fusion protein was below 100 nM throughout.

In the case of `CCNc1nc2cccc(-c3cc4c(-c5cnn(C6CCN(C(C)=O)CC6)c5)cnc(N)c4o3)c2s1` [Example 354, 1-[4-(4-{7-amino-2-[2-(ethylamino)-1,3-benzothiazol-7-yl]furo[2,3-d]pyridin-4-yl}-1H-pyrazol-1-yl)piperidin-1-yl]ethanone trifluoroacetate], the IC50 in the test with pJNK in HCT-116 cells and at TAK1-TAB1 fusion protein was below 100 nM throughout.

With `CC(C)N1[C@@H]2CC[C@H]1C[C@H](n1cc(-c3cnc(N)c4oc(-c5csc6cnccc56)cc34)cn1)C2` [Example 329, 4-{1-[(3-exo)-8-(propan-2-yl)-8-azabicyclo[3.2.1]oct-3-yl]-1H-pyrazol-4-yl}-2-(thieno[2,3-c]pyridin-3-yl)furo[2,3-c]pyridin-7-amine], the IC50 is 100 to 1000 nM in the test on pJNK in HCT-116 cells and below 100 nM on TAK1-TAB1 fusion protein.

Take `Cc1cc(-c2cc3c(-c4cnn([C@H]5CC[C@H](O)CC5)c4)cnc(N)c3o2)c2snnc2c1` [Example 373, trans-4-{4-[7-amino-2-(5-methyl-1,2,3-benzothiadiazol-7-yl)furo[2,3-c]pyridin-4-yl]-1H-pyrazol-1-yl}cyclohexanol]: the 50% inhibitory concentration (IC50) with pJNK in HCT-116 cells and on TAK1-TAB1 fusion protein was below 100 nM throughout.

For the compound `Nc1ncc(-c2cnn(C3CCN(C(=O)NCC4CCCCC4)CC3)c2)c2cc(-c3cccc4cnsc34)oc12` [Example 341, 4-[4-(7-amino-2-benzo[d]isothiazol-7-yl-furo[2,3-c]pyridin-4-yl)-pyrazol-1-yl]-piperidine-1-carboxylic acid cyclohexylmethyl-amide], the IC50 in the test on pJNK in HCT-116 cells was below 100 nM; on TAK1-TAB1 fusion protein, 100 to 1000 nM.

The values are drawn from patent US8378104B2 (OSI Pharmaceuticals, LLC, priority 2010, dated 2013).
